{
  "source": "patent US20040106584A1",
  "about": "“Prophylactic docosahexaenoic acid therapy for patients with subclinical inflammation” (priority 2002, published 2004)",
  "key": {"[1]": {"conditions": "cited from earlier work"}, "[2]": {"system": "ADP-induced platelet aggregation", "conditions": "oral loading dose of 300-600 mg; cited from earlier work"}, "[3]": {"conditions": "in vivo; cited from earlier work"}, "[4]": {"system": "obese diabetic mice", "conditions": "100 mg/kg body weight, but not normal or lean diabetic mice; cited from earlier work"}, "[5]": {"target": "T1, platelet glycoprotein IIb/IIa receptors (Homo sapiens, UniProt P05106+P08514)", "T1 construct": "host or cells: platelets in vivo (endogenous receptor)", "conditions": "cited from earlier work"}, "[6]": {"system": "C-reactive protein (CRP)", "assay": "Clinical study of DHASCO capsules co-administered with statin in dyslipidemia patients: CRP levels", "format": "in vivo, human", "conditions": "20 patients treated with DHA, 200 or 1000 mg daily", "procedure": "In a clinical study DHASCO capsules (which contained DHA as a triglyceride oil extracted from Crypthecodinium cohnii cells, obtained from Martek Biosciences Corp., Columbia, Md.) were co-administered with statin medication to patients with dyslipidemia. Hyperlipidemic patients already being treated with a stable dose of a statin medication but still failing to meet NCEP guidelines for LDL-cholesterol or triglycerides were treated with either 200 or 1000 mg of DHA daily for 12 months. HbAlc levels (glycosylated hemoglobin, a marker of glycemic control) were measured in plasma at baseline and after 8 or 12 months of treatment.\nReduction in CRP of this extent is clinically significant, and may be correlated with a benefit of reduced risk of Type II diabetes onset, independent of other Type II risk factors."}},
  "data": [
    {"compound": "COC(=O)[C@H](c1ccccc1Cl)N1CCc2sccc2C1", "note": "[Clopidogrel]", "values": [
      {"measurement": "reduction of the risk of serious vascular events compared with aspirin", "setting": "[1]; high-risk patients", "result": "about 10%"},
      {"measurement": "time to detectable inhibition of ADP-induced platelet aggregation", "setting": "[2]", "result": 2, "unit": "h"},
      {"measurement": "time to maximal inhibition of ADP-induced platelet aggregation", "setting": "[2]", "result": 6, "unit": "h"},
      {"measurement": "risk of skin rash and diarrhea compared with aspirin", "setting": "[3]", "result": "about a third"}
    ]},
    {"compound": "CC/C=C\\C/C=C\\C/C=C\\C/C=C\\C/C=C\\C/C=C\\CCC(=O)OCC", "note": "[DHA ethyl ester]", "values": [
      {"measurement": "blood glucose", "setting": "[4]", "result": "reduced"},
      {"measurement": "insulin sensitivity", "setting": "[4]", "result": "enhanced"},
      {"measurement": "plasma triglycerides", "setting": "[4]", "result": "reduced"}
    ]},
    {"compound": "CC(=O)Oc1ccccc1C(=O)O", "note": "[Aspirin, acetylsalicylic acid]", "values": [
      {"measurement": "reduction of the risk of serious vascular events", "setting": "[1]; patients at high risk of such an event", "result": "about a quarter"}
    ]},
    {"compound": "abciximab: humanized mouse antibody fragment with a high binding affinity for the glycoprotein IIb/IIa receptor", "values": [
      {"measurement": "persistent blockade of platelet glycoprotein IIb/IIa receptors", "setting": "[5]; 24 hours after cessation of an infusion", "result": "more than 50%"},
      {"measurement": "time to recovery of platelet function", "setting": "[5]; after cessation of an infusion", "result": 2, "unit": "days"}
    ]},
    {"compound": "Clc1ccccc1CN1CCc2sccc2C1", "note": "[Ticlopidine]", "values": [
      {"measurement": "risk of skin rash and diarrhea compared with aspirin", "setting": "[3]", "result": "doubles"}
    ]},
    {"compound": "CC/C=C\\C/C=C\\C/C=C\\C/C=C\\C/C=C\\C/C=C\\CCC(=O)O", "note": "[DHA, docosahexaenoic acid]", "values": [
      {"measurement": "overall reduction in CRP level", "setting": "[6]", "result": 15, "unit": "%"}
    ]}
  ]
}
